From patent US20230106506A1, “NOVEL PqsR INVERSE AGONISTS” (Helmholtz-Zentrum Fur Infektionsforschung GmbH, priority 2020, published 2023)

Columns and labels:
[1] = Metabolic stability in mouse liver microsomes (MLM); assay type: in vitro ADME; conditions: 1 μM compound, 0.5 mg/mL MLM, 1 mM NADPH, 37° C., read-out: half-life (t1/2) towards MLM
Experimental: For the evaluation of phase I metabolic stability, the compound (1 μM) was incubated with 0.5 mg/mL MLM (Corning) and 1 mM NADPH at 37° C. for 0, 5, 10, 15 and 30 min. The metabolic stability of Verapamil, Diphenhydramine and Benzydamine (1 μM each) were determined in parallel to confirm the enzymatic activity of the MLM. The incubation was stopped by addition of 2 volumes of acetonitrile containing internal standard (1 μM Leucine Enkephaline). Samples were centrifuged (15 min, 3,500 rpm). Concentration of the remaining test compound at the different time points was analyzed by HPLC-MS/MS and used to determine half-life (t1/2).

[2] = Kinetic turbidimetric aqueous solubility; assay type: physicochemical; conditions: aqueous buffer, kinetic from dmso stock; PBS buffer, final DMSO 2%, absorbance 620 nm; read-out: Kinetic Turbidimetric Aqueous Solubility at room temperature for 5 min
Experimental: Kinetic Turbidimetric Aqueous Solubility at room temperature for 5 min. […] Data was analyzed by fitting a four parameter sigmoidal function to the measured and normalized absorbances and AUC calculation providing access to Log S (decadic logarithm of the solubility).

[3] = tested on: P. aeruginosa pyocyanin production; assay: Pyocyanin assay; assay type: cell-based, P. aeruginosa strain PA14; conditions: Pseudomonas aeruginosa, PA14, 16 h, read-out: IC50-value towards pyocyanin production
Experimental: Inhibition of P. aeruginosa pyocyanin production by compounds was determined photometrically as described before. In short, an overnight culture of PA14 in PPGAS medium was washed, diluted in medium to a start OD600 of 0.02, and incubated for 16 h (37° C., 200 rpm, relative humidity 75%) in the presence of test compounds. Then, cultures were extracted with chloroform and re-extracted with 0.2 M HCl. Protonated red colored pyocyanin was determined by measuring OD520 and normalizing to OD600.

PqsR = target: T1, PqsR (Pseudomonas aeruginosa, UniProt Q9I4X0); assay: PqsR reporter gene assay in E. coli (β-galactosidase); assay type: cell-based
T1 construct: transfected with pEAL08-2 plasmid encoding pqsR under control of promoter tac; expressed in transfected cells; host or cells: Escherichia coli DH5alpha carrying pEAL08-2
T1 sequence (Q9I4X0 whole entry): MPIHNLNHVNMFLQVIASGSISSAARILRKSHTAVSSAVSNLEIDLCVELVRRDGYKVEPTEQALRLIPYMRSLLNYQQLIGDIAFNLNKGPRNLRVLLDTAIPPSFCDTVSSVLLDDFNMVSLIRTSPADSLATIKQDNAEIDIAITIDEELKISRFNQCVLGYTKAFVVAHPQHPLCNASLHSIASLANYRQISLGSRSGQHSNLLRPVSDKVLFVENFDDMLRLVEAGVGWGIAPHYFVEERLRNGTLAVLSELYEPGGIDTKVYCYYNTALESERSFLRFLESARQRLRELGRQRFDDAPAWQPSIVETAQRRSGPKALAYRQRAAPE
Experimental: Inhibition of pqsR-dependent gene expression of test compounds was determined in an E. coli based β-galactosidase reporter gene assay. Escherichia coli DH5α was transfected with pEAL08-2 plasmid encoding pqsR under control of promoter tac and β-galactosidase reporter gene lacZ under control of promoter pqsA. Antagonistic effects of compounds were evaluated in the presence of/in competition to 50 nM PQS. A positive control was used to ensure the reliability of individual assays. First, PQS was diluted in methanol and added to the wells of a glass coated 96-deep-well plate, and the solvent was evaporated. Then, compounds were added in 5 μL DMSO to final concentrations of 0.001-10 μM. Overnight cultures of E. coli DH5a×pEAL08-2 were diluted 1:100 in LB medium with ampicillin (50 μg/ml) and incubated at 37° C. with shaking until it reached an OD600 of 0.2. Finally, 995 μL of culture was added to each well and the β-galactosidase activity was determined by ortho-nitrophenyl-β-galactoside conversion in permeabilized cells after a 2.5 h incubation period (37° C., 180 rpm). OD600, OD420, and OD550 were measured using POLARstar Omega (BMG Labtech, Ortenberg, Germany), and the activity was expressed as ratio of the slope of β-galactosidase activity between basal control (no PQS) and solvent control, IC50 values of antagonists were determined by variation of the concentration of the test compounds.

| Structure (SMILES) | half-life at 1 µM [1] | solubility at 5 min [2] | IC50 [3] | IC50 (PqsR) |
| --- | --- | --- | --- | --- |
| CC(C)Oc1ccc(-c2ncc(CNc3cc(C#N)nc(-c4cn[nH]c4)c3)s2)cc1 [Compound 12, 4-(((2-(4-Isopropoxyphenyl)thiazol-5 yl)methyl)amino)-6-(1H-pyrazol-4-yl)picolinonitrile] | 0.5 to 1 h | > 10 µM | ≤ 100 nM | ≤ 50 nM |
| CC(C)Oc1ccc(-c2ncc(CNc3cc(-n4cncn4)nc(C(F)(F)F)c3)s2)cc1Cl [Compound 18, N-((2-(3-Chloro-4-isopropoxyphenyl)thiazol-5-yl)methyl)-2-(7H-1,2,4-triazol-1-yl)-6-(trifluoromethyl)pyridin-4-amine] | > 1.67 h | – | ≤ 100 nM | ≤ 50 nM |
| CC(C)Oc1ccc(-c2ncc(CNc3cc(-n4ccnc4)nc(C(F)(F)F)c3)s2)cc1 [Compound 15, 2-(1H-Imidazol-1-yl)-N-((2-(4-isopropoxyphenyl)thiazol-5-yl)methyl)-6-(trifluoromethyl)pyridin-4-amine] | 0.5 to 1 h | > 10 µM | ≤ 100 nM | ≤ 50 nM |
| Fc1ccccc1Oc1ccc(-n2cc(CNc3cc(-c4cn[nH]c4)nc(C(F)(F)F)c3)nn2)cc1 [Compound 04, N-((1-(4-(2-Fluorophenoxy)phenyl)-1H-1,2,3-triazol-4-yl)methyl)-2-(1H-pyrazol-4-yl)-6-(trifluoromethyl)pyridin-4-amine] | 0.5 to 1 h | > 10 µM | 101 to 200 nM | ≤ 50 nM |
| FC(F)(F)c1cc(NCc2cn(-c3ccc(Oc4ccccc4)cc3)nn2)cc(-n2cncn2)n1 [Compound 03, N-((1-(4-Phenoxyphenyl)-1H-1,2,3-triazol-4-yl)methyl)-2-(1H-1,2,4-triazol-1-yl)-6-(trifluoromethyl)pyridin-4-amine] | 1.02 to 1.67 h | > 25 µM | 201 to 500 nM | ≤ 50 nM |
| CC(C)Oc1ccc(-c2ncc(CNc3cc(-c4cc[nH]n4)nc(C(F)(F)F)c3)s2)cc1 [Compound 14, N-((2-(4-Isopropoxyphenyl)thiazol-5-yl)methyl)-2-(1H-pyrazol-3-yl)-6-(trifluoromethyl)pyridin-4-amine] | > 1.67 h | > 10 µM | 201 to 500 nM | 51 to 250 nM |
| CC(C)Oc1ccc(-n2cc(CNc3cc(-c4cccnc4)nc(C(F)(F)F)c3)nn2)cc1Cl [Compound 67, N-((1-(3-Chloro-4-isopropoxyphenyl)-1H-1,2,3-triazol-4-yl)methyl)-6-(trifluoromethyl)-[2,3′-bipyridin]-4-amine] | – | – | – | 51 to 250 nM |
| CC(C)Oc1ccc(-c2ncc(CNc3cc(-n4ccnc4)nc(C(F)(F)F)c3)s2)cc1Cl [Compound 16, N-((2-(3-Chloro-4-isopropoxyphenyl)thiazol-5-yl)methyl)-2-(1H-imidazol-1-yl)-6-(trifluoromethyl)pyridin-4-amine] | > 1.67 h | – | 101 to 200 nM | 51 to 250 nM |
| Cn1cc(-c2cc(SCc3nc4cc(Oc5ccccc5)ccc4[nH]3)cc(C(F)(F)F)n2)cn1 [Compound 65, 2-(((2-(1-Methyl-1H-pyrazol-4-yl)-6-(trifluoromethyl)pyridin-4-yl)thio)methyl)-5-phenoxy-1H-benzo[d]imidazole] | – | > 10 µM | – | 51 to 250 nM |
| CC(C)Oc1ccc(-n2cc(CNc3cc(-c4cn[nH]c4)nc(C(F)(F)F)c3)nn2)cc1Cl [Compound 07, N-((1-(3-Chloro-4-isopropoxyphenyl)-1H-1,2,3-triazol-4-yl)methyl)-2-(1H-pyrazol-4-yl)-6-(trifluoromethyl)pyridin-4-amine] | 0.5 to 1 h | > 25 µM | ≤ 100 nM | ≤ 50 nM |
| FC(F)(F)c1cc(NCc2cn(-c3ccc(Oc4ccccc4)cc3)nn2)cc(-n2ccnc2)n1 [Compound 02, 2-(1H-Imidazol-1-yl)-N-((1-(4-phenoxyphenyl)-1H-1,2,3-triazol-4-yl)methyl)-6-(trifluoromethyl)pyridin-4-amine] | – | > 25 µM | 201 to 500 nM | ≤ 50 nM |
| CC(C)Oc1ccc(-c2ncc(CNc3cc(-n4cncn4)nc(C(F)(F)F)c3)s2)cc1 [Compound 17, N-((2-(4-Isopropoxyphenyl)thiazol-5-yl)methyl)-2-(1H-1,2,4-triazol-1-yl)-6-(trifluoromethyl)pyridin-4-amine] | 1.02 to 1.67 h | > 50 µM | ≤ 100 nM | 51 to 250 nM |
| CC(C)Oc1ccc(-c2ncc(CNc3cc(-c4cnn(C)c4)nc(C(F)(F)F)c3)s2)cc1 [Compound 13, N-((2-(4-Isopropoxyphenyl)thiazol-5-yl)methyl)-2-(1-methyl-1H-pyrazol-4-yl)-6-(trifluoromethyl)pyridin-4-amine] | 0.5 to 1 h | > 10 µM | 201 to 500 nM | 51 to 250 nM |
| FC(F)(F)c1cc(NCc2cn(-c3ccc(Oc4ccccc4)cc3)nn2)cc(-c2cn[nH]c2)n1 [Compound 01] | – | > 25 µM | 101 to 200 nM | 51 to 250 nM |
| FC(F)(F)c1cc(SCc2nc3cc(Oc4ccccc4)ccc3[nH]2)cc(-n2cncn2)n1 [Compound 66, 2-(((2-(1H-1,2,4-Triazol-1-yl)-6-(trifluoromethyl)pyridin-4-yl)thio)methy)-5-phenoxy-1H-benzo[d]imidazole] | – | > 10 µM | 101 to 200 nM | ≤ 50 nM |
| CC(C)Oc1ccc(-n2cc(CNc3cc(C#N)nc(-c4cn[nH]c4)c3)nn2)cc1Cl [Compound 09, 4-(((1-(3-Chloro-4-isopropoxyphenyl)-1H-1,2,3-triazol-4-yl)methyl)amino)-6-(1H-pyrazol-4-yl)picolinonitrile] | – | > 10 µM | 201 to 500 nM | ≤ 50 nM |
| CC(C)Oc1ccc(-c2ncc(CNc3cc(-c4cn[nH]c4)nc(C(F)(F)F)c3)cn2)cc1Cl [Compound 48, N-((2-(3-Chloro-4-isopropoxyphenyl)pyrimidin-5-yl)methyl)-2-(1H-pyrazol-4-yl)-6-(trifluoromethyl)pyridin-4-amine] | > 1.67 h | > 25 µM | 101 to 200 nM | ≤ 50 nM |
| Cn1cc(-c2cc(NCc3cn(-c4ccc(Oc5ccccc5)cc4)nn3)cc(C(F)(F)F)n2)cn1 [Compound 10, 2-(1-Methyl-1H-pyrazol-4-yl)-N-((1-(4-phenoxyphenyl)-1H-1,2,3-triazol-4-yl)methyl)-6-(trifluoromethyl)pyridin-4-amine] | 0.5 to 1 h | > 25 µM | 201 to 500 nM | ≤ 50 nM |
| CC(C)Oc1ccc(-n2cc(CNc3cc(Cl)nc(-c4cn[nH]c4)c3)nn2)cc1Cl [Compound 08, 2-Chloro-N-((1-(3-chloro-4-isopropoxyphenyl)-1H-1,2,3-triazol-4-yl)methyl)-6-(1H-pyrazol-4-yl)pyridin-4-amine] | – | > 25 µM | 201 to 500 nM | ≤ 50 nM |
| CC(C)Oc1ccc(-c2ccc(CNc3cc(-c4cn[nH]c4)nc(C(F)(F)F)c3)cn2)cc1 [Compound 21, N-((6-(4-Isopropoxyphenyl)pyridin-3-yl)methyl)-2-(1H-pyrazol-4-yl)-6-(trifluoromethyl)pyridin-4-amine] | > 1.67 h | > 25 µM | 101 to 200 nM | – |
| N#Cc1cc(-c2ncc(CNc3cc(-n4cncn4)nc(C(F)(F)F)c3)cn2)ccc1Cl [Compound 39, 5-(5-(((2-(1H-1,2,4-Triazol-1-yl)-6-(trifluoromethyl)pyridin-4-yl)amino)methyl)pyrimidin-2-yl)-2-chlorobenzonitrile] | > 1.67 h | > 10 µM | 101 to 200 nM | – |
